Data: patent EP0155486A1, “1,3,5-Trisubstituted 1,2,4-triazole derivatives, process for their preparation and medicinal preparations containing them” (priority 1984, dated 1985)
Like-named read-outs stand apart in the source and are kept apart here.

Legend:
[1] = tested on: männlichen Ratten der Art Long Evans; test: animal or person; assay type: in vivo; conditions: for change in vivo at 6.25 mg/kg / change in vivo at 12.5 mg/kg: 504 h; for change in vivo at 6.25 mg/kg: read-out: Prozentuale Hemmung bei einer peroralen Dosis von 6,25 mg/kg; for Prozentuale Hemmung bei einer peroralen Dosis von 1,56 mg/kg: peroral 1,56 mg/kg; for Prozentuale Hemmung bei einer peroralen Dosis von 3,12 mg/kg: peroral 3,12 mg/kg; for ED50: read-out: Peroraler ED50-Wert in mg/kg an Ratten; for Therapeu-tischer Index LD50-Wert / ED50-Wert: ratio of peroral LD50 to peroral ED50, rats
Experimental: Die Untersuchung der therapeutischen Wirkung der erfindungsgemäßen 1,2,4-Triazolderivate wurde mittels des modifizierten Newbould-Prüfversuches (Brit. J. Pharmacol., 21 [1963], Seite 127) durchgeführt. Dazu wurde in die rechen Hinterfüße von männlichen Ratten der Art Long Evans mit Gewichten von 180 bis 250 g intraplantar […] abgetötetes Mycobacterium tuberculosis in einem Volumen von 0,1 ml injiziert. Nachfolgend wurden die Ratten pro betreffenden Tag mit einer Dosis der zu untersuchenden Verbindung insgesamt 16-mal während 3 Wochen behandelt. Die Änderung des Volumens der Fußschwellung wurde 21 Tage lang täglich mit einem Quecksilber-Plethysmometer vom Lence-Typ bestimmt. Vom 10-ten Tag an wurde das Volumen des linken Hinterfußes bestimmt. Die prozentuale Hemmung wurde im Verhältnis zu diesem Volumen aus der eintretenden Änderung in der Schwellung des rechten Hinterfußes berechnet.

Ratten = test: ulcerogenic side effect; assay type: in vivo
Experimental: Auch die geschwürbildende beziehungsweise ulcerogene Wirkung, eine der kritischsten Nebenwirkungen entzündungshemmender Mittel, betreffend erwiesen sich die erfindungsgemäßen 1,2,4-Triazolderivate als im Vergleich zu Handelspräparaten günstiger. So führten Einzeldosen von 15 mg/kg 1-(p-Chlorbenzoyl)-5-(methoxy)-2-(methyl)-indol-3-ylessig- säure {Indometacin} bei 100% der Ratten Geschwüre (Ulcus) herbei, während Einzeldosen von 1 000 mg/kg 1,5-Bis-[4'--(chlor)-phenyl]-3-[methylthio]-1,2,4-triazol (Verbindung des Beispieles 27) nur bei 10% der Tiere Geschwüre verursachten.

in vivo = conditions: rat, po, peroral, rats, read-out: Peroraler LD50-Wert in mg/kg an Ratten
[2] = po, peroral 12,5 mg/kg, 16 doses during 3 weeks, paw swelling, rats, read-out: Prozentuale Hemmung bei einer peroralen Dosis von 12,5 mg/kg
[3] = 16 doses during 3 weeks, paw swelling, rats
[4] = po, read-out: Prozentuale Hemmung bei einer peroralen Dosis von 12,5 mg/kg

| SMILES | change in vivo at 6.25 mg/kg ([1]; po) [%] | change in vivo at 12.5 mg/kg [1, 2] [%] | Prozentuale Hemmung bei einer peroralen Dosis von 3,12 mg/kg [1, 3] [%] | also measured |
| --- | --- | --- | --- | --- |
| CSc1nc(-c2ccc(Cl)cc2)n(-c2ccc(Br)cc2)n1 [Beispiel 54, 1-[4'-(Brom)-phenyl]-5-[4"-(chlor)-phenyl]-3--[methylthio]-1,2,4-triazol] | -28 | -56 |  |  |
| CSc1nc(-c2ccc(F)cc2)n(-c2cccc(Cl)c2)n1 [Beispiel 53, 1-[3'-(Chlor)-phenyl]-5-[4"-(fluor)-phenyl]-3--[methylthio]-1,2,4-triazol] |  | -51 |  |  |
| CSc1nc(-c2ccc(Cl)cc2)n(-c2ccc(Cl)cc2)n1 [Beispiel 27, 1,5-Bis-[4'-(chlor)-phenyl]-3--[methylthio]-1,2,4-triazol] | -55 |  | -39 | Prozentuale Hemmung bei einer peroralen Dosis von 1,56 mg/kg [1, 3]: -17%; change in vivo at 12.5 mg/kg [1, 4]: -67%; ED50 ([1]; po): 7.4 mg/kg; Tiere mit Geschwüren (Ratten; single dose 1 000 mg/kg, share of animals with ulcers): 10% |
| CSc1nc(-c2ccc(F)cc2)n(-c2ccc(F)cc2)n1 [Beispiel 41, 1-[4'-(Fluor)-phenyl]-5-[4"-(fluor)-phenyl]-3--[methylthio]-1,2,4-triazol] | -57 |  | -42 |  |
| CSc1nc(-c2ccc(Cl)cc2)n(-c2cccc(C(F)(F)F)c2)n1 [Beispiel 42, 1-[3'-(Trifluormethyl)-phenyl]-5-[4"-(Chlor)-phenyl]--3-[methylthio]-1,2,4-triazol] | -48 |  |  |  |
| CSc1nc(-c2ccc(Cl)cc2)n(-c2ccc(F)cc2)n1 [Beispiel 55, 1-[4'-(Fluor)-phenyl]-5-[4"-(chlor)-phenyl]-3--[methylthio]-1,2,4-triazol] | -68 |  | -26 | Prozentuale Hemmung bei einer peroralen Dosis von 1,56 mg/kg [1, 3]: -12%; ED50 ([1]; po): 6.8 mg/kg; Therapeu-tischer Index LD50-Wert / ED50-Wert [1]: 55,9; LD50 (in vivo): 380 mg/kg |
| CCCCC1C(=O)N(c2ccccc2)N(c2ccccc2)C1=O [Vergleichs-substanz A, 4-(Butyl)-1,2-di-(phenyl)-pyrazolidin-3,5-dion, reference compound] |  | -7 |  |  |
| COc1ccc2c(c1)c(CC(=O)O)c(C)n2C(=O)c1ccc(Cl)cc1 [Indometacin, 1-(p-Chlorbenzoyl)-5-(methoxy)-2-(methyl)-indol-3-ylessig-säure, reference compound] |  |  |  | Ratten mit Geschwüren (Ulcus) (Ratten; single dose 15 mg/kg, share of rats with ulcers): 100% |
| CSc1nc(-c2cccs2)n(-c2ccc(Cl)cc2)n1 [Beispiel 30, 1-[4'-(Chlor)-phenyl]-5-[thien-2"-yl]-3-[methylthio]--1,2,4-triazol] |  | -44 |  |  |
| CSc1nc(-c2ccc(F)cc2)n(-c2cccc(C(F)(F)F)c2)n1 [Beispiel 47, 1-[3'-(Trifluormethyl)-phenyl]-5-[4"-(fluor)-phenyl]--3-[methylthio]-1,2,4-triazol] | -22 | -53 |  |  |
| Clc1ccc(-c2nc(SCc3ccccn3)nn2-c2ccc(Cl)cc2)cc1 [Beispiel 4, 1,5-Bis-[4'-(chlor)-phenyl]-3-[pyrid-2"-ylmethyl-thio]-1,2,4-triazol] | -40 |  | -38 |  |
| CSc1nc(-c2ccccc2SC)n(-c2ccc(Cl)cc2)n1 [Beispiel 14, 1-[4'-(Chlor)-phenyl]-5-[2"-(methylthio)-phenyl]-3--[methylthio]-1,2,4-triazol] |  | -51 | -5 |  |
| CSc1nc(-c2ccc(C(F)(F)F)cc2)n(-c2ccc(F)cc2)n1 [Beispiel 45, 1-[4'-(Fluor)-phenyl]-5-[4"-(trifluormethyl)-phenyl]--3-[methylthio]-1,2,4-triazol] | -25 | -48 |  |  |
| CSc1nc(-c2ccc(F)cc2)n(-c2ccc(Cl)cc2)n1 [Beispiel 44, 1-[4'-(Chlor)-phenyl]-5-[4"-(fluor)-phenyl]-3--[methylthio]-1,2,4-triazol] | -53 |  | -64 | Prozentuale Hemmung bei einer peroralen Dosis von 1,56 mg/kg [1, 3]: -36%; ED50 ([1]; po): 2.1 mg/kg; Therapeu-tischer Index LD50-Wert / ED50-Wert [1]: 81,0; LD50 (in vivo): 170 mg/kg |
| COc1ccc2cc([C@H](C)C(=O)O)ccc2c1 [Vergleichs-substanz B, (+)-2-[6'--(Methoxy)-naphth-2'-yl]-propionsäure, reference compound] |  |  |  | ED50 ([1]; po): 12.5 mg/kg; change in vivo at 10 mg/kg [1, 4]: -34% |
